Assay results as given in PubChem BioAssay (NCI).
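At the GI50, growth is halved. TGI is the concentration that stops growth completely.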

Columns and labels:
Experiment in all cases: NCI anticancer screen, dose series, 384-well format
[1] = tested on: HL-60(TB) leukemia
[2] = tested on: UO-31 renal
[3] = tested on: OVCAR-4 ovarian
[4] = tested on: MDA-MB-435 melanoma
[5] = tested on: NCI/ADR-RES ovarian
[6] = tested on: 786-0 renal
[7] = tested on: NCI-H460 NSCLC
[8] = tested on: U251 glioblastoma
[9] = tested on: UACC-62 melanoma
[10] = tested on: HT29 colon
[11] = tested on: ACHN renal
[12] = tested on: SW-620 colon
[13] = tested on: A498 renal
[14] = tested on: SNB-19 CNS
[15] = tested on: LOX IMVI melanoma
[16] = tested on: OVCAR-3 ovarian
[17] = tested on: SNB-75 CNS
[18] = tested on: MDA-MB-468 breast
[19] = tested on: SF-295 CNS
[20] = tested on: CCRF-CEM leukemia
[21] = tested on: SN12C renal
[22] = tested on: TK-10 renal
[23] = tested on: PC-3 prostate
[24] = tested on: SR leukemia
[25] = tested on: OVCAR-5 ovarian
[26] = tested on: RXF 393 renal
[27] = tested on: SF-539 CNS
[28] = tested on: OVCAR-8 ovarian
[29] = tested on: CAKI-1 renal
[30] = tested on: NCI-H226 lung
[31] = tested on: T-47D breast
[32] = tested on: NCI-H23 lung
[33] = tested on: HOP-92 NSCLC
[34] = tested on: MOLT-4 leukemia
[35] = tested on: NCI-H322M lung
[36] = tested on: MALME-3M melanoma
[37] = tested on: SF-268 CNS
[38] = tested on: COLO 205 colon
[39] = tested on: DU-145 prostate
[40] = tested on: M14 melanoma
[41] = tested on: IGROV1 ovarian
[42] = tested on: A549 NSCLC
[43] = tested on: EKVX NSCLC
[44] = tested on: MDA-MB-231 breast
[45] = tested on: HOP-62 NSCLC
[46] = tested on: BT-549 breast
[47] = tested on: SK-MEL-28 melanoma

`Cc1cc(F)c(C(=O)Nc2cccc(-c3nncn3C(C)C)n2)cc1-n1cnc(C2CC2)c1` showed a GI50 [1] of 6.26 µM, a TGI [1] of 18.3 µM and a GI50 [2] of 10.4 µM. For the same molecule, the TGI [2] was 23.7 µM, the GI50 [3] was 17.2 µM and the TGI [3] was 38.5 µM. For the same molecule, the GI50 [4] was 13.2 µM, the TGI [4] was 30 µM and the GI50 [5] was 11.1 µM. The TGI [5] was 23.6 µM, the GI50 [6] was 15 µM and the TGI [6] was 40.4 µM. For the same molecule, the GI50 [7] was 12.9 µM, the TGI [7] was 43 µM and the GI50 [8] was 11.9 µM. The TGI [8] was over 81.6 µM, the GI50 [9] was 12.9 µM and the TGI [9] was 25.9 µM. It also gave a GI50 [10] of 22 µM, a TGI [10] of over 94.4 µM and a GI50 [11] of 11.5 µM. For the same molecule, the TGI [11] was 34.8 µM, the GI50 [12] was 13.9 µM and the TGI [12] was 32.3 µM. For the same molecule, the GI50 [13] was 10.1 µM, the TGI [13] was over 76.6 µM and the GI50 [14] was 22.6 µM. The TGI [14] was over 100 µM, the GI50 [15] was 13.7 µM and the TGI [15] was 28.9 µM. It also gave a GI50 [16] of 14.7 µM, a TGI [16] of 41.1 µM and a GI50 [17] of 13.5 µM. For the same molecule, the TGI [17] was 27.6 µM, the GI50 [18] was 3.39 µM and the TGI [18] was 10.5 µM. The GI50 [19] was 15.4 µM, the TGI [19] was 98.9 µM and the GI50 [20] was 7.73 µM. For the same molecule, the TGI [20] was 20.2 µM, the GI50 [21] was 19.4 µM and the TGI [21] was over 93.6 µM. The GI50 [22] was 14.8 µM, the TGI [22] was over 68.2 µM and the GI50 [23] was 15.5 µM. The TGI [23] was 30.2 µM, the GI50 [24] was 3.62 µM and the TGI [24] was 11.2 µM. The GI50 [25] was 23.9 µM, the TGI [25] was over 80.5 µM and the GI50 [26] was 10.3 µM. The TGI [26] was 25.2 µM, the GI50 [27] was 14.5 µM and the TGI [27] was 42.6 µM. It also gave a GI50 [28] of 12 µM, a TGI [28] of 25.6 µM and a GI50 [29] of 12.6 µM. For the same molecule, the TGI [29] was 31.4 µM, the GI50 [30] was 12.6 µM and the TGI [30] was 31.4 µM. For the same molecule, the GI50 [31] was 3.42 µM, the TGI [31] was 14.6 µM and the GI50 [32] was 4.62 µM. The TGI [32] was 16.8 µM, the GI50 [33] was 17.7 µM and the TGI [33] was over 82.9 µM. It also gave a GI50 [34] of 5.69 µM, a TGI [34] of 18.1 µM and a GI50 [35] of 18.8 µM. For the same molecule, the TGI [35] was 44.6 µM, the GI50 [36] was 15.2 µM and the TGI [36] was 35 µM. It also gave a GI50 [37] of 15 µM, a TGI [37] of 47.7 µM and a GI50 [38] of 3.83 µM. The TGI [38] was 12.4 µM, the GI50 [39] was 6.87 µM and the TGI [39] was 27.8 µM. It also gave a GI50 [40] of 14.5 µM, a TGI [40] of 28.7 µM and a GI50 [41] of 9.78 µM. The TGI [41] was 40.5 µM, the GI50 [42] was 8.05 µM and the TGI [42] was 66.6 µM. It also gave a GI50 [43] of 5.8 µM, a TGI [43] of 22.1 µM and a GI50 [44] of 15.3 µM. It also gave a TGI [44] of over 85.9 µM, a GI50 [45] of 8.04 µM and a TGI [45] of 29.3 µM. The GI50 [46] was 11.2 µM, the TGI [46] was 23.6 µM and the GI50 [47] was 17.8 µM. It also gave a TGI [47] of 35 µM.
Work on `C[C@@H](Nc1nc(N[C@H](C)C(F)(F)F)nc(-c2cccc(Cl)n2)n1)C(F)(F)F` yielded a GI50 [1] of over 85.3 µM, a TGI [1] of over 100 µM and a GI50 [2] of over 100 µM. The TGI [2] was over 100 µM, the GI50 [3] was 21.7 µM and the TGI [3] was 55 µM. The GI50 [4] was over 77.9 µM, the TGI [4] was over 100 µM and the GI50 [5] was over 82.3 µM. It also gave a TGI [5] of over 100 µM, a GI50 [6] of 33.2 µM and a TGI [6] of over 76.3 µM. For the same molecule, the GI50 [7] was 36.4 µM, the TGI [7] was over 100 µM and the GI50 [8] was 40 µM. It also gave a TGI [8] of over 100 µM, a GI50 [9] of 38.6 µM and a TGI [9] of over 76.9 µM. For the same molecule, the GI50 [10] was over 100 µM, the TGI [10] was over 100 µM and the GI50 [11] was over 100 µM. It also gave a TGI [11] of over 100 µM, a GI50 [12] of over 49.5 µM and a TGI [12] of over 70.6 µM. It also gave a GI50 [13] of 32.9 µM, a TGI [13] of over 72.4 µM and a GI50 [14] of over 82.4 µM. The TGI [14] was over 100 µM, the GI50 [15] was over 100 µM and the TGI [15] was over 100 µM. The GI50 [16] was 28.8 µM, the TGI [16] was over 100 µM and the GI50 [17] was 29.5 µM. It also gave a TGI [17] of over 75.4 µM, a GI50 [18] of 20.9 µM and a TGI [18] of over 90.2 µM. For the same molecule, the GI50 [19] was over 83.8 µM, the TGI [19] was over 100 µM and the GI50 [20] was over 100 µM. It also gave a TGI [20] of over 100 µM, a GI50 [21] of over 62.6 µM and a TGI [21] of over 100 µM. For the same molecule, the GI50 [22] was over 52.4 µM, the TGI [22] was over 90.1 µM and the GI50 [23] was over 51.1 µM. The TGI [23] was over 80.9 µM, the GI50 [24] was over 77.3 µM and the TGI [24] was over 100 µM. It also gave a GI50 [25] of over 100 µM, a TGI [25] of over 100 µM and a GI50 [26] of 24.2 µM. For the same molecule, the TGI [26] was 58.8 µM, the GI50 [27] was over 69.1 µM and the TGI [27] was over 100 µM. For the same molecule, the GI50 [28] was 47.2 µM, the TGI [28] was over 100 µM and the GI50 [29] was 33.6 µM. The TGI [29] was over 73.8 µM, the GI50 [30] was 84.7 µM and the TGI [30] was over 100 µM. It also gave a GI50 [31] of over 84.3 µM, a TGI [31] of over 100 µM and a GI50 [32] of over 49.9 µM. For the same molecule, the TGI [32] was over 89.7 µM, the GI50 [33] was 43 µM and the TGI [33] was over 100 µM. For the same molecule, the GI50 [34] was over 100 µM, the TGI [34] was over 100 µM and the GI50 [35] was over 100 µM. The TGI [35] was over 100 µM, the GI50 [36] was over 66 µM and the TGI [36] was over 100 µM. It also gave a GI50 [37] of 39.6 µM, a TGI [37] of over 100 µM and a GI50 [38] of over 100 µM. It also gave a TGI [38] of over 100 µM, a GI50 [39] of 34.1 µM and a TGI [39] of over 100 µM. The GI50 [40] was over 100 µM, the TGI [40] was over 100 µM and the GI50 [41] was over 100 µM. The TGI [41] was over 100 µM, the GI50 [42] was over 51.8 µM and the TGI [42] was over 83 µM. The GI50 [43] was over 100 µM, the TGI [43] was over 100 µM and the GI50 [44] was 27.9 µM. For the same molecule, the TGI [44] was over 83.3 µM, the GI50 [45] was 28.5 µM and the TGI [45] was over 65.4 µM. For the same molecule, the GI50 [46] was 32.5 µM, the TGI [46] was over 70.3 µM and the GI50 [47] was over 100 µM. The TGI [47] was over 100 µM.
